“And” between values parts separate entries of the source, which are not always exact repeats. Identical values can stand only once. “Also recorded” adds a separate entry of the source.
Experiments:
[1] = Optical photos of bile salt solutions as a function of temperature, with crossed polarized filters; format: physicochemical; details: 25 mM in PBS; for liquid crystal phase: all temperatures, crossed polarized filter; for appearance of solution: temperatures from 90° C. to -15° C.
Experimental: (§1) Viscosity profiles, critical micelle concentration (CMC), and optical photos of bile salts. The critical micelle concentration of a colloid or surfactant is the concentration of surfactant above which micelles form, and any additional surfactant added to the system will form micelles. The viscosity profile of NaC, NaDC, NaCC, and NaLC at a concentration of 25 mM in 1x PBS were determined by an AR2000 rheometer from TA Instruments in New Castle, PA, with a 40 mm aluminum parallel plate at 25° C. The samples were measured from 0.1 to100 s^-1 shear rate after pre-shearing at 50 s^-1 for 30 seconds with or without an equilibrium time of 30 min. The CMCs were determined by a UV-vis spectroscopy method with slight modifications described in Reis, S.; Moutinho, C. G.; Matos, C.; de Castro, B.; Gameiro, P.; Lima, J. L., “Noninvasive methods to determine the critical micelle concentration of some bile acid salts,” Anal Biochem 2004, 334 (1), 117-26, which is incorporated herein by reference. NaC, NaDC, and NaCC were dissolved in water at concentrations from 1 to 25 mM. The absorbance spectra from 200 to 300 nm were collected by an Evolution 201 spectrometer from Thermo Scientific, Waltham, MA to find the peak absorbance. The CMC was determined from the sudden change of peak absorbance as concentration increases. The optical photos of bile salt in 1X PBS solutions were taken after incubation at each designed temperature for 20 minutes.

[2] = Ice recrystallization inhibition (IRI) "splat" assay; details: for %MLGS compared with PEG: at 40 mg/mL; for IRI activity: splat assay, 30 min incubation at -8° C., 12.5-100 mM
Experimental: Ice recrystallization inhibition (IRI) activity of bile salts. NaC, NaDC, NaCC, and NaLC were tested for IRI activity at concentrations of 12.5, 25.0, 50.0, and 100 mM in 1x PBS using the “splat” assay test known and described in Knight, C. A.; Hallett, J.; Devries, A. L., “Solute effects on ice recrystallization: An assessment technique,” Cryobiology 1988, 25 (1), 55-60, which is incorporated herein by reference. 100 mM NaLC was not tested due to its gelation. A droplet of the sample was gently squeezed out of a syringe with a 21-gauge needle from Exelint, Redondo Beach, CA, and was dripped from 1.4 m above onto a microscope slide sitting on a metal block surrounded by dry ice. Upon hitting the slide surface, the droplet instantaneously froze into an ice wafer. The ice wafer was immediately transferred into the chamber of a cryostage system from Instec, Boulder, CO, for incubation. Pictures were taken after 30 min incubation at -8° C. by a BX51 polarized microscope from Olympus, Tokyo, Japan, equipped with a DP70 camera from Olympus. PEG was tested as a negative control at concentrations of 5, 10, 20, and 40 mg/mL in 1x PBS to match the mass concentrations (w/v) of bile salts. PVA was tested as a positive control at low concentrations, including 0.05, 0.10, 0.20, and 0.40 mg/mL in 1x PBS, because of its high IRI activity. The largest lengths of the five largest ice crystals in one picture were measured by Image J software from National Institutes of Health, Bethesda, MD. Each sample was performed in triplicate. Each replication had five pictures randomly selected, representing a total of 75 ice crystals for each sample. The percent mean largest grain size (%MLGS) was calculated by averaging three replications divided by the blank. Data are reported as the mean ± standard derivation of three replications. The %MLGS calculations are plotted in FIG. 3 against the concentrations of the bile acids and the controls.

[3] = Viscosity profile by rheometer / gel formation; format: physicochemical; details: for viscosity: 25 mM in 1x PBS, 25° C.
Experimental: as §1

[4] = Ice recrystallization inhibition (IRI) "splat" assay; details: concentrations close to or below literature CMC value, PBS (FIG. 6D)
[5] = Atomic force microscopy (AFM) analysis of bile salt solutions; format: physicochemical; details: 25 mM sample, dried on mica
Experimental: Atomic force microscopy (AFM) analysis of bile salt solutions. The AFM procedure was followed as set forth in Schefer, L.; Adamcik, J.; Diener, M.; Mezzenga, R., “Supramolecular chiral self-assembly and supercoiling behavior of carrageenans at varying salt conditions,” Nanoscale 2015, 7 (39), 16182-16188, which is incorporated herein by reference. Briefly, 0.01% (v/v) APTES in water was incubated on a freshly peeled mica surface for 1 min. APTES solution was then washed away using water on a P6700 spin coater from Specialty Coating Systems Inc., Indianapolis, IN, at 2,000 rpm. About 200 µL of 25 mM sample was loaded on the mica surface and incubated for 30 seconds. Then the mica was rinsed with 1.0 mL water drop-wise and dried in a vacuum chamber at room temperature. All mica surfaces were observed by a Multimode VIII AFM from Bruker, Santa Barbara, USA, in ScanAsyst-Air mode. All images were flattened using Nanoscope Analysis software from Bruker, Santa Barbara, USA, before analyzing by an ImageJ instrument from National Institutes of Health, Bethesda, MD.

[6] = Ice growth kinetics of NaLC; details: 1x PBS, -8° C., up to 60 min
Experimental: Ice growth kinetics of NaLC. The ice growth kinetics in the presence of NaLC at 12.5, 25, and 50 mM was determined at -8° C. in 1x PBS. Five pictures were taken every 5 min for a total time of 60 min. %MLGS at each time was calculated against its blank control at the same time.

| Compound | temperature at which ices were formed [1] [°C] | liquid crystal phase [1] | appearance of solution [1] | %MLGS compared with PEG ([2]; 1x PBS, 30 min at -8° C.) | IRI activity ([2]; 1x PBS) | gel formation ([3]; 100 mM, after sample preparation) | viscosity ([3]; fresh-prepared) | ice crystal size compared to blank 1x PBS and negative control PEG ([2]; 10 mg/mL (25 mM), 30 min at -8° C.) | ice crystal sizes compared with positive control PVA ([2]; 10 mg/mL NaLC, 1x PBS, 30 min at -8° C.) | concentration at which IRI active ([2]; 1x PBS, 30 min at -8° C.) | IRI activity (%MLGS) [4] | helical structure by AFM [5] | helix length [5] [µm] | helix turn [5] [µm] | helix width [5] [µm] | ice growth ([6]; 12.5 mM) | ice growth ([6]; 25.0 mM) | ice growth ([6]; 50.0 mM) | viscosity ([3]; after 30-min equilibrium) |
| --- | --- | --- | --- | --- | --- | --- | --- | --- | --- | --- | --- | --- | --- | --- | --- | --- | --- | --- | --- |
| C[C@H](CCC(=O)[O-])[C@H]1CC[C@H]2[C@@H]3[C@H](O)C[C@@H]4C[C@H](O)CC[C@]4(C)[C@H]3CC[C@]12C.[Na+] [NaCC, sodium chenodeoxycholate] | -15 | no liquid crystal phase was observed | clear | smaller %MLGS values than PEG | weak ice recrystallization inhibitor |  |  |  |  |  |  |  |  |  |  |  |  |  |  |
| C[C@H](CCC(=O)[O-])[C@H]1CC[C@H]2[C@@H]3CC[C@@H]4C[C@H](O)CC[C@]4(C)[C@H]3CC[C@]12C.[Na+] [NaLC, sodium lithocholate] |  |  | turbid |  | relatively potent IRI; also recorded: most potent ice recrystallization inhibitor | gel was formed | highest viscosity among four bile salts | significantly smaller ice crystals | comparable to those in the positive control of 1 mg/mL PVA | around 10 mg/mL and ~25 mM | No IRI activity was observed | helical structure | 1.72 ± 0.37 | 0.19 ± 0.04 | 0.14 ± 0.01 | IRI active but did not stop the ice growth completely | completely stopped the growth of ice crystals; also recorded: block the growth of ice crystals | completely stopped the growth of ice crystals |  |
| sodium deoxycholate [NaDC] |  |  | clear | smaller %MLGS values than PEG | weak ice recrystallization inhibitors |  |  |  |  |  |  |  |  |  |  |  |  |  | increased significantly to a level similar to that of NaLC |
| C[C@H](CCC(=O)[O-])[C@H]1CC[C@H]2[C@@H]3[C@H](O)C[C@@H]4C[C@H](O)CC[C@]4(C)[C@H]3C[C@H](O)[C@]12C.[Na+] [NaC, sodium cholate] | -15 | no liquid crystal phase was observed | clear |  | not IRI active |  |  |  |  |  |  |  |  |  |  |  |  |  |  |

— patent US20230320345A1, “METHODS AND COMPOSITIONS FOR INHIBITING ICE RECRYSTALLIZATION” (UNIVERSITY OF TENNESSEE RESEARCH FOUNDATION, priority 2022, published 2023)
